Source: US20140294854A1, “TARGET DIRECTED TO ADIPOCYTES, METHODS AND ASSAYS FOR TREATMENT OF OBESITY” (priority 2011, published 2014)
Residues, ends and D or L forms follow the SMILES beside them. *: point of attachment. Cbz = O=C(OCc1ccccc1)*

Legend:
ATGL = ATGL degradation in WAT fat fragments, anti-ATGL immunoblot; assay type: cell-based, mouse; settings: for ATGL concentrations on co-treatment with cycloheximide: B6 ob/ob fat co-treated with cycloheximide and the inhibitor
Description: FIGS. 5A-5C. Regulation of ATGL expression through degradation pathways. (5A) ATGL mRNA level in WAT was determined by RT-qPCR (n=6). (5B) WAT fragments of BALB/c and B6 ob/ob mice were incubated for 5 hours with cycloheximide (CHX) and WAT protein lysates were immunoblotted using anti-ATGL to follow degradation rates of ATGL. (5C) B6 ob/ob WAT fragments were treated with MG132 (MG, proteasome inhibitor) and chloroquine (CQ, lysosome inhibitor). Protein extracts were analyzed by Western blot. Densitometry analysis was performed (5B,5C) and data are expressed as average ±SEM (n=6). Unpaired t-tests were performed, *P<0.05.
Thus, BALB/c ob/ob fat has long lived ATGL whereas C57BL/6 ob/ob fat has ATGL that is degraded within several hours. […] Thus, ATGL appears to be degraded by both the lysosomal and proteasomal pathways.

HSL = target: T1, HSL (Mus musculus, UniProt P54310); experiment: Free fatty acid release (lipolysis) from adipose tissue explants with the HSL inhibitor; assay type: cell-based
T1 construct: freshly dissected adipose tissue explants from BALB/c or B6 ob/ob inguinal fat pad; from tissue; host or cells: inguinal fat pad (white adipose tissue) explants of BALB/c and C57BL/6J ob/ob (Agrp-/-) mice
T1 sequence (P54310 1-759): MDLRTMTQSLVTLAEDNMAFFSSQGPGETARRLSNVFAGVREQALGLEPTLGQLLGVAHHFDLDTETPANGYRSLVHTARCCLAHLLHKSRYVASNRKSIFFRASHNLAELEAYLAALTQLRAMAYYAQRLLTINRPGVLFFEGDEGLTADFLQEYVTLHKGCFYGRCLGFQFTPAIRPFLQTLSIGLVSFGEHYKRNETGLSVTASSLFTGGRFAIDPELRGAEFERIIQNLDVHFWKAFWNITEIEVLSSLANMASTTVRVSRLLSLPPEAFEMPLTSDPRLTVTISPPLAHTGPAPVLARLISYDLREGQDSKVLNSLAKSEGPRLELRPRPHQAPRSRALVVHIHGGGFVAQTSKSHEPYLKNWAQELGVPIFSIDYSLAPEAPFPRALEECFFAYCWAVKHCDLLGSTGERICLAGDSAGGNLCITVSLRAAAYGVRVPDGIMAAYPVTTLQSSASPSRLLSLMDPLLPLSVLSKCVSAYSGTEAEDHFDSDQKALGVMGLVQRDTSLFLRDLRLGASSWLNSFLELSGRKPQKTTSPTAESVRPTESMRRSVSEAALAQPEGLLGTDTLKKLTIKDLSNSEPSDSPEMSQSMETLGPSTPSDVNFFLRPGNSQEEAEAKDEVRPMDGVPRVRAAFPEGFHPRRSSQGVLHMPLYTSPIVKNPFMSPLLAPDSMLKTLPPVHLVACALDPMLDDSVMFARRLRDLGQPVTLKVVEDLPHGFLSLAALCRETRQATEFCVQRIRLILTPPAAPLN
Source text: Free fatty acids (FFA) release from adipose tissue explants was further measured in presence or not of the HSL inhibitor CAY 10499. […] FFA release was compared from freshly dissected adipose tissue explants from BALB/c or B6 ob/ob inguinal fat pad. It was observed that FFA production was increased in explants from BALB/c relative to B6 ob/ob mice when HSL activity is inhibited by CAY10499. The same difference between BALB and B6 lipolysis (Δ^−CAY=[…] versus Δ^+CAY=397.1±8.1, P=0.31) without the HSL inhibitor (i.e. HSL+ATGL activity) or with CAY10499 (i.e. ATGL activity), respectively. […] Of note, the increased ATGL activity is greater than the increase in ATGL protein content in adipose tissue. This may be due to the concomitant increase of CGI-58 expression that is known to enhance ATGL lipolytic activity.

Structure (SMILES): C[C@@H]1C[C@@H]([C@H](O)CC2CC(=O)NC(=O)C2)C(=O)[C@@H](C)C1 [cycloheximide]
- ATGL concentrations after cycloheximide treatment (ATGL; fat fragments from B6 ob/ob mice, incubated 5 hours): dramatic reduction in ATGL concentrations
- ATGL amounts after cycloheximide treatment (ATGL; fat fragments from BALB/c ob/ob mice, incubated 5 hours): no alteration in ATGL amounts

Structure (SMILES): CC(C)C[C@@H](C=O)NC(=O)[C@H](CC(C)C)NC(=O)[C@H](CC(C)C)NC(=O)OCc1ccccc1 [MG-132] (Cbz-Leu-Leu-Leu-aldehyde)
- ATGL concentrations on co-treatment with cycloheximide (ATGL): ATGL concentrations persisted

Structure (SMILES): CCN(CC)CCCC(C)Nc1ccnc2cc(Cl)ccc12 (stereo not drawn) [chloroquine]
- ATGL concentrations on co-treatment with cycloheximide (ATGL): ATGL concentrations persisted

Structure (SMILES): COc1nn(-c2ccc(NC(=O)OCc3ccccc3)c(C)c2)c(=O)o1 [CAY10499]
- Lipolysis induced with selective β3AR agonist CL316,243 (HSL; in presence of 100 μM CAY10499): blunted
- Difference between BALB and B6 lipolysis (Δ+CAY), FFA release (HSL; inguinal fat pad explants of BALB/c vs B6 ob/ob with CAY10499 (i.e. ATGL activity), P=0.31 versus without inhibitor): 397.1±8.1
